For 20 compounds, IC50 results are on record in patent publication US12291515B2, “Pyrrolidine derivative and use thereof” (Rushi Biotech (Hangzhou) Co., Ltd, priority 2021, dated 2025).

The IC50 is the midpoint of a concentration-inhibition curve. Lower therefore signals greater potency.

Holding throughout (format): cell-based
Test [1] concerns Human pancreatic cancer cell CFPAC-1. Nature of the test: CCK-8 cell proliferation assay, CFPAC-1. The conditions noted are these: CFPAC-1 cells, CCK-8, 24 hrs with drug, OD 450 nm. The procedure: (§1) The effect of samples on the proliferation of human tumor cells in vitro was determined by CCK-8 cell proliferation assay.
(§2) The cells were assayed through a method including the following steps:
(§3) 1) The cells were digested, counted, and prepared into a cell suspension in a corresponding culture medium (Table 1) (5×10^4 cells/ml for CFPAC-1 and RPMI 8226, and 3.5×10^4 cells/ml for rest cells). The cell suspension was added to each well of a 96-well plate in 100 μl well.
(§4) 2) Then the 96-well plate was incubated for 24 hrs in an incubator at 37° C. and 5% CO2.
(§5) 3) The drug was diluted with the culture medium to the required working concentration. 100 μl of the corresponding drug containing medium was added to each well. A negative control group (added with drug-free culture medium) was also set.
(§6) 4) Then the 96-well plate was incubated for 24 hrs in an incubator at 37° C. and 5% CO2.
(§7) 5) The 96-well plate was stained with CCK-8, and The OD value was determined at λ=450 nm.
(§8) a) 10 μl of CCK-8 was added to each well, and incubated in the incubator for another 2-3 hrs.
(§9) b) The content was mixed uniformly by shaking gently on a shaker for 10 min, and the bubbles in the 96-well plate were removed.
(§10) 6) The inhibition rate in each group was calculated.
For orientation: Tetrazolium dyes change colour on reduction, which living cells bring about.

In test [2] the test system is Human colon cancer cell HCT-116. As to the kind of experiment: CCK-8 cell proliferation assay, HCT116. To be noted: HCT116 cells, CCK-8, 24 hrs with drug, OD 450 nm. The protocol:
as §1, §2, §3, §4, §5, §6, §7, §8, §9, §10

Test [3] has as its system Human gastric cancer cell MKN45. As to the kind of experiment: CCK-8 cell proliferation assay, MKN-45. To be noted: MKN-45 cells, CCK-8, 24 hrs with drug, OD 450 nm. The protocol: as §1, §2, §3, §4, §5, §6, §7, §8, §9, §10
Test [4] deals with Human multiple myeloma cell RPMI 8226. As to the kind of experiment: CCK-8 cell proliferation assay, RPMI8226. The conditions noted are these: RPMI8226 cells, CCK-8, 24 hrs with drug, OD 450 nm. The procedure:
as §1, §2, §3, §4, §5, §6, §7, §8, §9, §10

Test [5] deals with Human lung adenocarcinoma cell A549. Nature of the test: CCK-8 cell proliferation assay, A549. The conditions noted are these: A549 cells, CCK-8, 24 hrs with drug, OD 450 nm. The protocol:
as §1, §2, §3, §4, §5, §6, §7, §8, §9, §10

Test [6] relates to Human hepatoma cell HepG2. As to the kind of experiment: CCK-8 cell proliferation assay, HepG2. To be noted: HepG2 cells, CCK-8, 24 hrs with drug, OD 450 nm. The procedure: as §1, §2, §3, §4, §5, §6, §7, §8, §9, §10
The subject of test [7] is Human esophageal cancer cell TE-1. As to the kind of experiment: CCK-8 cell proliferation assay, TE-1. The conditions noted are these: TE-1 cells, CCK-8, 24 hrs with drug, OD 450 nm. The protocol:
as §1, §2, §3, §4, §5, §6, §7, §8, §9, §10

Molecules are shown by their SMILES.

On to `O=C(NCCCCCC1CCN(C(=O)c2ccco2)C1)Nc1cccnc1` (centres unmarked) [BSS-TP028, 1-(5-(1-(furoyl)pyrrolidin-3-yl)pentyl)-2-(3-pyridinyl)urea], for which the half-inhibitory concentration (IC50) in test [1] amounted to 31 nM; in test [2], 63 nM; in test [3], 44 nM; in test [4] it was 42 nM; in test [5], 41 nM; in test [6] it was 59 nM. Besides, the midpoint of inhibition in test [7], the IC50, lay at 57 nM.
Turning to `O=C(NCCCCCC1CCN(C(=O)c2occc2F)C1)Nc1ccncc1` (centres unmarked) [BSS-TP030], the IC50 in test [1] was 40 nM; in test [2], 62 nM; in test [3] it was 57 nM; in test [4] it was 46 nM; in test [5], 42 nM; in test [6], 63 nM. The same compound showed an IC50 in test [7] of 60 nM.
In the case of `O=C(NCCCCCC1CCN(C(=O)c2[nH]ccc2F)C1)Nc1ccncc1` (centres unmarked) [BSS-TP031], the IC50 in test [1] came to 33 nM; in test [2], 53 nM; in test [3], 45 nM; in test [4] it was 39 nM; in test [5], 59 nM; in test [6], 51 nM. Also, in test [7], the IC50 came to 68 nM.
For `COc1cccc(OC)c1C(=O)N1CCC(CCCCCNC(=O)Nc2cc(F)nc(F)c2)C1` (centres unmarked) [BSS-TP032], the half-inhibitory concentration (IC50) was determined as 39 nM in test [1]; 69 nM in test [2]; 74 nM in test [3]; 58 nM in test [4]; 73 nM in test [5]; 99 nM in test [6]. The compound also gave an IC50 in test [7] of 117 nM.
On to `COc1cccc(OC)c1C(=O)N1CCC(CCCCCNC(=O)Nc2cccnc2)C1` (centres unmarked) [BSS-TP033, 1-(5-(1-(2,6-dimethoxybenzoyl)pyrrolidin-3-yl)pentyl)-2-(3-pyridinyl) urea], for which the IC50 in test [1] is 56 nM; in test [2] it was 72 nM; in test [3], 65 nM; in test [4], 53 nM; in test [5], 64 nM; in test [6] it was 82 nM. The compound further came in with a half-maximal inhibitory concentration (IC50) in test [7] of 87 nM.
Take `O=C(NCCCCCC1CCN(C(=O)c2ccco2)C1)Nc1cc(F)nc(F)c1` (centres unmarked) [BSS-TP035]: the concentration for half-maximal inhibition (IC50) is 35 nM in test [1]; 66 nM in test [2]; 47 nM in test [3]; 29 nM in test [4]; 39 nM in test [5]; 81 nM in test [6]. The IC50 in test [7] is 73 nM.
In the case of `O=C(NCCCCCC1CCN(C(=O)c2cc3ccccc3o2)C1)Nc1cc(F)nc(F)c1` (centres unmarked) [BSS-TP036], the half-inhibitory concentration (IC50) in test [1] amounted to 42 nM; in test [2], 78 nM; in test [3] it was 53 nM; in test [4], 49 nM; in test [5], 58 nM; in test [6] it was 126 nM. In test [7], this compound returned an IC50 of 94 nM.
On to `O=C(NCCCCC[C@H]1CCN(C(=O)c2cccs2)C1)Nc1ccncc1` [BSS-TP039, (S)-1-(5-(1-(2-thienylformyl)pyrrolidin-3-yl)pentyl)-2-(4-pyridinyl)urea], for which the 50% inhibitory concentration (IC50) in test [1] is 25 nM; in test [2], 71 nM; in test [3], 47 nM; in test [4], 38 nM; in test [5] it was 46 nM; in test [6], 60 nM. The same compound registered a half-maximal inhibitory concentration (IC50) in test [7] of 73 nM.
`O=C(NCCCCC[C@@H]1CCN(C(=O)c2cccs2)C1)Nc1ccncc1` [BSS-TP040, (R)-1-(5-(1-(2-thienylformyl)pyrrolidin-3-yl)pentyl)-2-(4-pyridinyl)urea]: the IC50 in test [1] was 29 nM; in test [2], 52 nM; in test [3] it was 31 nM; in test [4], 24 nM; in test [5], 43 nM; in test [6], 49 nM. This compound also came in with an IC50 in test [7] of 65 nM.
For `O=C(NCCCCCCC1CCN(C(=O)c2ccccc2)C1)Nc1ccncc1` (centres unmarked) [BSS-TP101, 1-(6-(1-(benzoyl)pyrrolidin-3-yl)hexyl)-2-(4-pyridinyl)urea], the IC50 was 29 nM in test [1]; 22 nM in test [2]; 39 nM in test [3]; 21 nM in test [4]; 35 nM in test [5]; 50 nM in test [6]. In addition, the IC50 in test [7] was determined as 64 nM.
With `COc1cccc(OC)c1C(=O)N1CCC(CCCCCCNC(=O)Nc2ccncc2)C1` (centres unmarked) [BSS-TP102, 1-(6-(1-(2,6-dimethoxybenzoyl)pyrrolidin-3-yl)hexyl)-2-(4-pyridinyl) urea], the concentration for half-maximal inhibition (IC50) in test [1] came to 13 nM; in test [2], 27 nM; in test [3], 30 nM; in test [4] it was 10 nM; in test [5] it was 23 nM; in test [6], 35 nM. In test [7], this compound gave a half-inhibitory concentration (IC50) of 29 nM.
For `O=C(NCCCCCCC1CCN(C(=O)c2cccs2)C1)Nc1ccncc1` (centres unmarked) [BSS-TP103, 1-(6-(1-(2-thienylformyl)pyrrolidin-3-yl)hexyl)-2-(4-pyridinyl)urea], the 50% inhibitory concentration (IC50) amounted to 31 nM in test [1]; 88 nM in test [2]; 36 nM in test [3]; 15 nM in test [4]; 28 nM in test [5]; 43 nM in test [6]. In test [7], this compound yielded a half-inhibitory concentration (IC50) of 50 nM.
In the case of `O=C(NCCCCCCC1CCN(C(=O)c2ccc[nH]2)C1)Nc1ccncc1` (centres unmarked) [BSS-TP104, 1-(6-(1-(2-pyrrolylformyl)pyrrolidin-3-yl)hexyl)-2-(4-pyridinyl)urea], the IC50 in test [1] turned out to be 33 nM; in test [2], 57 nM; in test [3], 46 nM; in test [4], 29 nM; in test [5], 33 nM; in test [6] it was 75 nM. In test [7], the half-inhibitory concentration (IC50) amounted to 62 nM.
Turning to `O=C(NCCCCCCC1CCN(C(=O)c2ccco2)C1)Nc1ccncc1` (centres unmarked) [BSS-TP105, 1-(6-(1-(furoyl)pyrrolidin-3-yl)hexyl)-2-(4-pyridinyl)urea], the half-inhibitory concentration (IC50) in test [1] was 37 nM; in test [2] it was 53 nM; in test [3] it was 32 nM; in test [4] it was 20 nM; in test [5], 43 nM; in test [6] it was 61 nM. In test [7], this compound displayed a half-maximal inhibitory concentration (IC50) of 76 nM.
In the case of `O=C(NCCCCCCC1CCN(C(=O)C2CCCN2)C1)Nc1ccncc1` (centres unmarked) [BSS-TP106, 1-(6-(1-(2-pyrrolidinylformyl)pyrrolidin-3-yl)hexyl)-2-(4-pyridinyl)urea], the IC50 in test [1] came to 46 nM; in test [2], 66 nM; in test [3], 58 nM; in test [4], 47 nM; in test [5], 68 nM; in test [6], 119 nM. This compound also registered an IC50 in test [7] of 97 nM.
With `O=C(NCCCCCCC1CCN(C(=O)C2CCCO2)C1)Nc1ccncc1` (centres unmarked) [BSS-TP107, 1-(6-(1-(2-tetrahydrofurylformyl)pyrrolidin-3-yl)hexyl)-2-(4-pyridinyl)urea], the IC50 in test [1] was 58 nM; in test [2] it was 76 nM; in test [3], 53 nM; in test [4], 51 nM; in test [5], 55 nM; in test [6], 137 nM. The same compound registered an IC50 in test [7] of 82 nM.
`O=C(NCCCCCCC1CCN(C(=O)C2CCCS2)C1)Nc1ccncc1` (centres unmarked) [BSS-TP108, 1-(6-(1-(2-tetrahydrothienylformyl)pyrrolidin-3-yl)hexyl)-2-(4-pyridinyl)urea]: the IC50 in test [1] came out at 41 nM; in test [2] it was 59 nM; in test [3] it was 49 nM; in test [4], 32 nM; in test [5], 49 nM; in test [6], 92 nM. In test [7], this compound yielded a half-maximal inhibitory concentration (IC50) of 73 nM.
As for `O=C(NCCCCCCC1CCN(C(=O)c2ccccc2)C1)Nc1cccnc1` (centres unmarked) [BSS-TP109, 1-(6-(1-(benzoyl)pyrrolidin-3-yl)hexyl)-2-(3-pyridinyl)urea], the IC50 in test [1] was found to be 26 nM; in test [2], 47 nM; in test [3], 53 nM; in test [4] it was 23 nM; in test [5] it was 29 nM; in test [6], 71 nM. Besides, in test [7], the IC50 was determined as 88 nM.
In the case of `O=C(NCCCCCCC1CCN(C(=O)c2cccs2)C1)Nc1cccnc1` (centres unmarked) [BSS-TP110, 1-(6-(1-(2-thienylformyl)pyrrolidin-3-yl)hexyl)-2-(3-pyridinyl)urea], the IC50 in test [1] is 52 nM; in test [2], 73 nM; in test [3], 75 nM; in test [4], 56 nM; in test [5], 44 nM; in test [6], 116 nM. In test [7], this compound displayed an IC50 of 109 nM.
On to `O=C(NCCCCCCC1CCN(C(=O)c2ccco2)C1)Nc1cccnc1` (centres unmarked) [BSS-TP111, 1-(6-(1-(furoyl)pyrrolidin-3-yl)hexyl)-2-(3-pyridinyl)urea], for which the IC50 in test [1] is 42 nM; in test [2], 62 nM; in test [3] it was 77 nM; in test [4], 53 nM; in test [5], 61 nM; in test [6], 87 nM. In addition, half-maximal inhibition in test [7] (IC50) required 133 nM.
